Laboratory results published in PMC11409218, “Metal(triphenylphosphine)-atovaquone Complexes: Synthesis, Antimalarial Activity, and Suppression of Heme Detoxification” (Inorganic Chemistry, 2024).
Read-outs that look alike come from different tables or passages of the source.

Columns and labels:
[1] = Cytotoxicity in mammalian cells (CellTiter-Glo), J774; assay type: cell-based; details: mouse, J774 macrophage cells; J774 murine macrophage line; 72 h drug incubation; mean of three experiments; read-out: mammalian cells CC50 (±SEM), J774
Description: (§1) Cell lines J774 and HepG2 were incubated with the drug for 72 h, the same time frame as employed to determine antimalarial activity. Cytotoxicity was evaluated in parallel with ATV as a representative parental drug, while doxorubicin was used as a standard cytotoxic drug. These experiments were also used to estimate the in vitro selectivity index (Table 2).
(§2) Doxorubicin chloridrate (Eurofarma, São Paulo, Brazil) was used as a positive control, while untreated cells were employed as negative controls. Bioluminescence readings were performed using a Filtermax F5Multi-Mode instrument (Molecular Devices, Sunnyvale, CA) using the CellTiter-Glo kit (Promega Corporation, Madison, USA). Three independent experiments were performed and CC50 values were calculated.

[2] = Cytotoxicity in mammalian cells (CellTiter-Glo), HepG2; assay type: cell-based; details: HepG2 hepatocellular carcinoma cells; HepG2 human hepatocellular carcinoma line; 72 h drug incubation; mean of three experiments; read-out: mammalian cells CC50 (±SEM), HepG2
Description: as §1, §2

J774 cells = test: Cytotoxicity in mammalian cells (CellTiter-Glo), J774; assay type: cell-based; details: J774 murine macrophage line; 72 h drug incubation; mean of three experiments; read-out: mammalian cells CC50 (±SEM), J774
Description: as §1, §2

[3] = test system: P. falciparum 3D7 (CQ-susceptible strain); test: Antiplasmodial activity, asexual blood stages, HRP2 ELISA-based assay, 3D7 strain; assay type: cell-based, Plasmodium falciparum; details: read-out: P. falciparum IC50 (±SEM), 3D7
Text: We determined the half-maximal inhibitory concentration (IC50) of the complexes against asexual blood stages of P. falciparum using CQ-susceptible and CQ-resistant strains (Table 2). […]. Two strains were selected for the tests: the CQ-susceptible 3D7 strain (isolated in West Africa; obtained from MR4, VA, USA), and the CQ-resistant W2 strain (isolated in Indochina; obtained from MR4, VA, USA). Both were maintained in culture in RPMI 1640 (Invitrogen, Paisley, UK), supplemented with 10% human serum (Abcys S.A. Paris, France), and buffered with 25 mM HEPES and 25 mM NaHCO3. Parasites were grown in A-positive human blood (Etablissement Français du Sang, Marseille, France) in controlled atmospheric conditions that consisted of 10% O2, 5% CO2, and 85% N2 at 37 °C with 95% humidity. […]
For in vitro isotopic microtests, 25 μL/well of antimalarial drug and 200 μL/well of parasitized red blood cell suspension (final parasitemia 0.5%, final hematocrit 1.5%) were distributed into 96-well plates. The plates were incubated for 72 h at 37 °C in 85% N2, 10% O2, 5% CO2. After freezing and then thawing, the hemolyzed cultures were homogenized by vortexing the plates. The drug susceptibility assay was performed using the HRP2 ELISA-based assay of the Malaria Ag Celisa kit (ref KM2159, Cellabs PTY LDT, Brookvale, Australia), as described previously.[72] […] […]. IC50 are expressed as means of at least 5 to 7 independent experiments.

[4] = test system: P. falciparum W2 (CQ-resistant strain); test: Antiplasmodial activity, asexual blood stages, HRP2 ELISA-based assay, W2 strain; assay type: cell-based, Plasmodium falciparum; details: read-out: P. falciparum IC50 (±SEM), W2
Description: The potency of the metal complexes to inhibit parasite growth was also examined in comparison with ATV.
The two strains were synchronized twice with sorbitol before use,[69] and clonality was verified every 15 days through PCR genotyping of the polymorphic genetic markers msp1 and msp2 and microsatellite loci.[70],[71] Compounds were resuspended in DMSO and then diluted in RPMI-DMSO (99v/1v) to obtain final concentrations ranging from 0.25 to 20000 nM.
After freezing and then thawing, the hemolyzed cultures were homogenized by vortexing the plates. The drug susceptibility assay was performed using the HRP2 ELISA-based assay of the Malaria Ag Celisa kit (ref KM2159, Cellabs PTY LDT, Brookvale, Australia), as described previously.[72]

[5] = Interaction with ferriprotoporphyrin IX, spectroscopic titration of Soret band at 402 nm; assay type: binding; details: pH 7.4; 40% aqueous DMSO; 1:1 complexation model; mean and SEM of three experiments
Description: The association constants (Log K) of the compounds with hemin were determined at pH 7.4 using a 1:1 complexation model with the equation proposed by Egan et al.[52] for the nonlinear least-squares fitting (Figure 2, Table 2).
Following a procedure described in the literature,[52] the association constant (Log K) of the drugs with ferriprotoporphyrin IX was determined in 40% aqueous DMSO. A stock solution of hemin chloride was prepared by adding 3.5 mg hemin to 10 mL DMSO and adjusted to pH 7.5. A working solution of hemin in 40% DMSO was further prepared by mixing 140 μL hemin stock solution, 5 mL distilled water, 3.86 mL DMSO, and 1 mL 0.2 M Tris (tris(hydroxymethyl)aminomethane) buffer. Aliquots of compounds were added to this working hemin solution. Blank solutions containing only hemin or compounds were prepared to subtract the absorbance of the compounds. […] Binding affinity was determined using the equation A = (A0 + A∞K[C])/(1 + K[C]) for a 1:1 complexation model using nonlinear least-squares fitting, where A0 is the absorbance of Fe(III)PPIX, A∞ is the absorbance of the compound–hemin adduct at saturation, and K is the association constant. Three independent experiments were performed.

[6] = test system: β-hematin crystal formation; test: β-Hematin crystal formation by FTIR spectroscopy; assay type: biochemical; details: acid-buffered medium pH 5; 1:3 hematin/compound ratio
Description: The ability of these compounds to inhibit the formation of β-hematin crystals was investigated by IR spectroscopy (Figure 2f). Of note, β-hematin crystal formation was assayed in an acid-buffered medium, while hemin titration was assayed at neutral pH. […]. For both ATV and complexes 1–3, there may have been overlapping between a decrease in the (C = O) band of heme species and a (C = O) band of quinone. However, there was no danger of overlaps in the (C–O) band of heme species at 1210 cm^–1, since these species are absent from the drugs.
The conversion of hematin into β-hematin crystals was determined by FTIR spectroscopy as described previously.[52] In a microtube, 20 mg hemin and three equivalents of the compounds were dissolved in 3 mL 0.1 M NaOH solution and stirred for 30 min at 60 °C. Then, 0.3 mL 0.1 M HCl and 1.7 mL sodium acetate buffer (10 M, pH 5) were added at the same temperature. […] After incubation for 120 min, the reaction mixture was cooled on ice for 10 min and then centrifuged and washed with water to remove salts. Resulting crystals were dried and IR spectra were obtained using ATR mode.[66]−[68]

[7] = CQ-susceptible 3D7 strain, 72 h drug incubation, mean of five to seven experiments
[8] = CQ-resistant W2 strain, 72 h drug incubation, mean of five to seven experiments

| SMILES | CC50 (J774 cells) [nM] | IC50 [3, 7] [nM] | IC50 [4, 8] [nM] | also measured |
| --- | --- | --- | --- | --- |
| COc1cccc2c1C(=O)c1c(O)c3c(c(O)c1C2=O)C[C@@](O)(C(=O)CO)C[C@@H]3O[C@H]1C[C@H](N)[C@H](O)[C@H](C)O1 [DOX, Doxorubicin, reference compound] | – | – | – | CC50 at 72 h [1]: 440 ± 310 nM; CC50 at 72 h [2]: < 120 nM |
| [Cl][Au].c1ccc(P(c2ccccc2)c2ccccc2)cc1 [AuClPPh3, [Au(PPh3)Cl]] | 4100 ± 800 | 1430 ± 309 | 3290 ± 629 | – |
| O=[N+]([O-])[O-].[Cu+].c1ccc(P(c2ccccc2)c2ccccc2)cc1.c1ccc(P(c2ccccc2)c2ccccc2)cc1 [[Cu(PPh3)2NO3]] | > 80000 | > 20000 | > 20000 | – |
| CCN(CC)CCCC(C)Nc1ccnc2cc(Cl)ccc12 (stereo not drawn) [CQ, chloroquine] | – | – | – | IC50 ([3]; Plasmodium falciparum, 3D7, 72 h): 23.8 ± 5.5 nM; IC50 ([4]; Plasmodium falciparum, W2, 72 h): 526 ± 126 nM; log K (association constant of drug binding to hemin) [5]: 4.78 ± 0.01; inhibition of β-hematin crystal formation (IR bands 1663 and 1210 cm^–1) [6]: decreased simultaneously in these two bands |
